According to patent US11400283B2, “Pulse generating device for delivery of electrical pulses to a desired tissue of a mammal” (SC[…] AB, priority 2017, dated 2022):

Details: rat, 6 hours after electroporation treatment, 800 V/cm, 12 pulses of 250 μs length
Description: FIG. 3 schematically illustrates a Gamma Camera image of a rat taken 6 hours after an electroporation treatment with electrical field strength of 800 V/cm and 12 pulses of 250 μs length. […] In FIG. 3, the injection site, the electroporation site and three reference sites are shown.
Further, investigation of the effect of applied electric pulses of 600, 800, 1000, 1200 V/cm; having 100 and 500 μs pulse length, and 2, 4, 6 or 12 pulses, on the accumulation of the radiolabeled pharmaceutical ^99mTc-DTPA that mimics the Bleomycin, in rat muscular tissue after in vivo electro-permeabilization has been performed. Gamma camera measurements is applied to noninvasively quantify the accumulation of ^99mTc-DTPA in the region treated with electrical pulses as previously described.

O=C([O-])CN(CCN(CC(=O)[O-])CC(=O)[O-])CCN(CC(=O)[O-])CC(=O)[O-].[99Tc+4] [99Tcm-DTPA, 99Tcm- diethylene-triamine-penta-acetic-acid]
activity in the electroporated site (Gamma Camera image): high activity
activity in the reference sites (Gamma Camera image): low activity
